Reference: US6958321B2, “Isolation, characterization, cloning and use of a mushroom lectin” (The Regents of the University of Michigan, priority 2001, dated 2005)

Legend:
MOA = assay: Sugar ligand binding to MOA (hemagglutination inhibition, hapten inhibition of precipitation, calorimetry); design: species or system Marasmius oreades; details: binding to MOA in solution
Procedure: All three methods gave approximately the same results, with the calorimetric data being the most precise.
Being a blood type B agglutinin, MOA was assayed primarily against D-galactosyl-terminated sugars and oligosaccharides. […] Methyl α-galactopyranoside was similarly very poor. […] While not limited to any particular mechanism, and with the understanding that knowledge of the underlying mechanism is not required for the practice of the invention, it is believed that recognition of the L-fucosyl moiety is the reason for limited agglutination of human O erythrocytes and a weak precipitin curve with blood group H substance.

[1] = target: T1, Marasmius oreades lectin (MOA, cMOA) (Marasmius oreades, UniProt Q8X123); assay: Isothermal titration calorimetry, MOA of Example 1 (proteolyzed, clipped form, cMOA); format: binding; details: for Ka / Kd / TΔS / −ΔG / −ΔH / ligand binding: isothermal titration calorimetry; for Ka, cMOA: proteolyzed (clipped) native lectin, Table 6
T1 sequence (Q8X123 1-293): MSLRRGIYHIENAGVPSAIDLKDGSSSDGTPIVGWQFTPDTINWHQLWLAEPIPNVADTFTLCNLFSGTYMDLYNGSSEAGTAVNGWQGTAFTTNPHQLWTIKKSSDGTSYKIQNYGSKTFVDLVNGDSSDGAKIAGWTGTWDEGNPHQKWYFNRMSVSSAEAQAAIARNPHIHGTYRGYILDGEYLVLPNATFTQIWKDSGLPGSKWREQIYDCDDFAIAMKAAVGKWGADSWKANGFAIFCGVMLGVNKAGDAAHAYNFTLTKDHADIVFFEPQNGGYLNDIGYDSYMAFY

recombinant MOA (rMOA) = target: T2, recombinant MOA (rMOA) (Marasmius oreades, UniProt Q8X123); assay: Isothermal titration calorimetry, recombinant MOA (rMOA); format: binding; details: read-out: Ka, rMOA (converted)
T2 sequence (Q8X123 1-293): T1 sequence (Q8X123 1-293)
Procedure: (§1) As this volume underfills the titration cell, variable volume calculations were applied, using the Bindworks software installed in the instrument. […] Finally, the trisaccharide L-Fucα1,2Ga1β1,4G1c (fucosyllactose), related to the blood group H trisaccbaride, was assayed. […] While not to be limited to any particular mechanism, it is believed that this may be the reason that MOA recognizes and agglutinates human O erythrocytes to a limited extent, and gives a weak precipitin curve with blood group H substance.
Expression and characterization of recombinant MOA: A full-length PCR product incorporating NdeI and EcoRI into its forward and reverse primers, respectively, was cloned into PCR Blunt II using topoisomerase (Invitrogen) and subsequently shuttled into an IPTG inducible pT7 expression vector (MOApT7LO). Recombinant MOA was expressed in a Nova Blue DE3 strain of E. coli. Expressing bacteria were collected by centrifugation and resuspended in a lysis buffer consisting of 50 mM NaH2PO4, 300 mM NaCl, 10 mM imidizole, 10mM 2-mercaptoethanol, 1 mM phenylmethylsulfonyl fluoride, 1% NP-40, and a protease inhibitor cocktail. The extract was twice run through a french press. The insoluble fraction was removed by centrifugation (10,000×g, 15 min).
(§2) Purification of recombinant MOA and native intact MOA-Recombinant MOA was purified from the soluble fraction by absorption on a column of melibiose-Sepharose and elution by lactose. Further purification was carried out on an affinity column of Synsorb B. Except for the diaminopropane elution, all affinity purifications were carried out in PBS, pH 7.2, containing 1.25 mM EDTA. After purification, lectin solutions were dialyzed against distilled water and lyophilized. […] Intact native MOA was prepared with a purification procedure (Example 2) that utilized a protease inhibitor cocktail (product P8215, Sigma, St. Louis, Mo.) which was added at the level of 0.1 ml/100 ml extract buffer (instead of phenylmethylsulfonyl fluoride), all buffers lacked Ca^++ and contained 1.25 mM EDTA, and the initial extraction and ammonium sulfate fractionations were carried out under an atmosphere of argon.
(§3) Binding constants of several relevant oligosaccharides to recombinant and intact native MOA were determined calorimetrically.

intact native MOA (nMOA) = target: T3, intact native MOA (nMOA) (Marasmius oreades, UniProt Q8X123); assay: Isothermal titration calorimetry, intact native MOA (nMOA); format: binding; details: read-out: Ka, nMOA (converted)
T3 sequence (Q8X123 1-293): T1 sequence (Q8X123 1-293)
Procedure: as §1, §2, §3

immobilized MOA = assay: Binding to MOA-Sepharose 4B affinity column; design: species or system Marasmius oreades; details: washed with PBS, eluted with 20 mM diaminopropane
Source text: Further insight into the carbohydrate specificity of MOA was obtained by using immobilized MOA. Immobilization of MOA on a variety of supports is contemplated. In one embodiment, MOA is immobilized on a matrix that can be used in an affinity column (see below). In some embodiments, the matrix comprises Sepharose 4B beads. In some Embodiments, the MOA-conjugated Sepharose 4B beads are packed in a column for binding and affinity isolation and purification studies. Briefly, the MOA-Sepharose column is loaded with glycan, glycoconjugate or serum sample to be tested, then washed with an appropriate buffer (including but not limited to PBS). Bound components are eluted with a suitable elution buffer (including but not limited to 1,3-diaminopropane in NaCl), and the collected fractions are analyzed for the presence of protein or glycan (see Example 6 below). The fractions containing the bound components (eluted as described herein) can be pooled and concentrated.
MOA was immobilized on cyanogen bromide-activated Sepharose 4B as follows. 1.5 g of cyanogen bromide-activated Sepharose 4B was allowed to swell in 100 ml of 1 mM HCl solution for 30 min. The supernatant was removed and the swollen beads (6 ml) were filtered on a sintered funnel, washed several times with 100 ml of 1 mM HCl and finally with 20 ml of 0.1 M sodium bicarbonate buffer, pH 8.3, containing 0.5 M sodium chloride. The beads were quickly transferred to a plastic bottle containing 16.2 mg MOA in the same buffer (10 ml) containing 0.2 M lactose. The plastic bottle was shaken at room temperature for 6 hr and at 4° C. overnight. The beads were filtered on a sintered glass funnel, washed with the coupling buffer, and then shaken in 1 M ethanolamine (12 ml) at room temperature for 2.5 hr to cap all of the unreacted iminocarbonate groups. The beads were filtered, washed alternately with the coupling buffer then sodium acetate buffer (0.1 M, pH 4.0 containing 0.5 M NaCl) four times. A column (1×7 cm) packed with the beads was finally washed with PBS containing 0.04% sodium azide. The beads contained 2.3 mg MOA per ml Sepharose 4B, based on MOA remaining in solution.
In order to assess the binding of various glycans, glycoconjugates and serum samples to MOA-Sepharose, the following general procedure was used. The MOA-Sepharose column was loaded with glycan, glycoconjugate or serum sample (0.6-5 ml) and washed with PBS (15 ml). The bound components were eluted with 20 mM 1,3-diaminopropane in 0.15 M NaCl (15 ml). The fractions collected (1 ml) were neutralized with 1 M phosphoric acid (approximately 16 μl), and analyzed by either absorbance at 280 nm for protein, or by phenol-sulfuric acid assay, as described by Dubois et al. [Anal. Chem. 28: 350 (1956)] for the glycan. The column was finally washed thoroughly with PBS. The fractions containing the bound components were pooled and concentrated by Amicon ultrafiltration (Millipore Corp., Bedford, Mass.) using a membrane (YM10) of 10,000 molecular weight cut-off.

Row | Compound | ligand binding (MOA) | Ka [1] | Kd [1] | TΔS [1] | −ΔG [1] | −ΔH [1] | Ka ([1]; Table 3) | Kd (recombinant MOA (rMOA)) | other results
1 | CC1OC(OC2C(OC3C(CO)OC(O)C(O)C3O)OC(CO)C(O)C2O)C(O)C(O)C1O [2′ Fucosyllactose, L-Fucα1,2Ga1β1,4G1c] | low but measurable binding | 548 M⁻¹ | 1.83 mM | 6.4 kcal/mol | 3.70 kcal/mol | 10.1 kcal/mol | .548 10^3 M^−1 | – | –
2 | C[C@@H]1O[C@@H](O[C@H]2C(O)O[C@H](CO)[C@H](O)[C@@H]2O[C@H]2O[C@H](CO)[C@H](O)[C@H](O)[C@H]2O)[C@@H](O)[C@H](O)[C@@H]1O (some centres unmarked) [B trisaccharide, Galα1,3[Fucα1,2]Gal] | – | 36000 M⁻¹ | 0.036 mM | 14.6 kcal/mol | 6.01 kcal/mol | 20.6 kcal/mol | 27.8 10^3 M^−1 | 21.7 µM | enhancement of affinity to MOA relative to Galα1,3Gal ([1]; addition of an L-fucosyl group): 4 fold; Ka, cMOA [1]: 27.8 10^3 M^−1
3 | OC[C@H]1O[C@H](O[C@H]2[C@@H](O)[C@@H](CO)OC(O)[C@@H]2O)[C@H](O)[C@@H](O)[C@H]1O (some centres unmarked) [Galα1,3Gal] | excellent ligand | 6000 M⁻¹ | 0.182 mM | 15.0 kcal/mol | 5.05 kcal/mol | 20.1 kcal/mol | 5.48 10^3 M^−1 | 37.5 µM | Kd (intact native MOA (nMOA)): 36.6 µM; affinity constant relative to that for Meα-Gal [1]: 44 fold; ligand binding ([1]; Table 3): excellent ligand; Ka, cMOA [1]: 5.48 10^3 M^−1
4 | OC[C@H]1O[C@H](O[C@H]2[C@@H](O)[C@@H](CO)O[C@@H](O[C@H]3[C@H](O)[C@@H](O)C(O)O[C@@H]3CO)[C@@H]2O)[C@H](O)[C@@H](O)[C@H]1O (some centres unmarked) [Galα1,3Galβ1,4Glc] | – | – | – | – | – | – | – | 75.8 µM | Kd (intact native MOA (nMOA)): 59.9 µM
5 | OCC1OC(OC2C(O)OC(CO)C(O)C2O)C(O)C(O)C1O (stereo not drawn) [Galβ1,2Gal, Ga1α1,2Ga1] | bound poorly or not at all | – | > 10 mM | – | – | – | <0.1 10^3 M^−1 | – | ligand binding ([1]; Table 3): bound poorly or not at all
6 | OCC1OC(OC2C(CO)OC(O)C(O)C2O)C(O)C(O)C1O (stereo not drawn) [Galβ1,4Gal, G1α1,4Ga1] | bound poorly or not at all | – | > 10 mM | – | – | – | <0.1 10^3 M^−1 | – | ligand binding ([1]; Table 3): bound poorly or not at all
7 | OC[C@H]1O[C@@H](OC[C@H]2OC(O)[C@H](O)[C@@H](O)[C@H]2O)[C@H](O)[C@@H](O)[C@H]1O (some centres unmarked) [Galβ1,6Gal] | – | – | – | 2.84 kcal/mol | 3.28 kcal/mol | 6.12 kcal/mol | – | – | –
8 | CC(=O)N[C@H]1C(O)O[C@H](CO)[C@@H](O[C@@H]2O[C@H](CO)[C@H](O)[C@H](O)[C@H]2O)[C@@H]1O (some centres unmarked) [LacNAc, N-acetyllactosamine] | very poor ligands | – | 3.45 mM | 10.9 kcal/mol | 3.33 kcal/mol | 14.22 kcal/mol | 0.290 10^3 M^−1 | 1490 µM | Kd (intact native MOA (nMOA)): 2630 µM; Ka, cMOA [1]: 0.29 10^3 M^−1
9 | CO[C@@H]1O[C@H](CO)[C@@H](O)[C@H](O[C@@H]2O[C@H](CO)[C@H](O)[C@H](O)[C@H]2O)[C@H]1NC(C)=O [LactoNbioseβMe] | – | – | 4.67 mM | 3.49 kcal/mol | 3.15 kcal/mol | 6.64 kcal/mol | 0.214 10^3 M^−1 | – | –
10 | OC[C@H]1O[C@@H](O[C@H]2[C@H](O)[C@@H](O)C(O)O[C@@H]2CO)[C@H](O)[C@@H](O)[C@H]1O (some centres unmarked) [Lactose] | very poor ligands | 185 M⁻¹ | 5.08 mM | 5.76 kcal/mol | 3.1 kcal/mol | 8.86 kcal/mol | 0.197 10^3 M^−1 | – | –
11 | CC(=O)N[C@H]1C(O)O[C@H](CO)[C@@H](O[C@@H]2O[C@H](CO)[C@H](O)[C@H](O[C@H]3O[C@H](CO)[C@H](O)[C@H](O)[C@H]3O)[C@H]2O)[C@@H]1O (some centres unmarked) [Linear B2 trisacc., Galα1,3Galβ1,4GlcNAc] | – | 9700 M⁻¹ | 0.103 mM | 15.2 kcal/mol | 5.39 kcal/mol | 20.6 kcal/mol | 9.753 10^3 M^−1 | 33 µM | Kd (intact native MOA (nMOA)): 25.4 µM; increase of binding relative to Galα1,3Gal ([1]; addition of a GlcNAc group to the reducing end): approximately 50%; Ka, cMOA [1]: 9.75 10^3 M^−1
12 | CO[C@H]1O[C@H](CO)[C@H](O)[C@H](O)[C@H]1O [Me-α-Gal, Methyl α-galactopyranoside] | very poor | – | 8.13 mM | 3.06 kcal/mol | 2.82 kcal/mol | 5.88 kcal/mol | 0.123 10^3 M^−1 | – | –
13 | OC[C@H]1O[C@H](OCC2O[C@@H](O)[C@H](O)[C@@H](O)[C@@H]2O)[C@H](O)[C@@H](O)[C@H]1O (stereo partly drawn) [melibiose, Ga1α1,6G1c] | very poor ligands | – | – | – | – | – | – | – | –
14 | Ga1α1,6Ga1 | bound poorly or not at all | – | – | – | – | – | – | – | ligand binding ([1]; Table 3): bound poorly or not at all
15 | asialofetuin: asialofetuin, with terminal Galβ1,4GlcNAc residues | – | – | – | – | – | – | – | – | binding to MOA-Sepharose column (immobilized MOA): passed through the column
16 | degalactosylated bovine thyroglobulin: α-galactosidase-digested bovine thyroglobulin | – | – | – | – | – | – | – | – | binding to MOA-Sepharose column (immobilized MOA): passed through the column
